Read-outs that look alike come from different tables or passages of the source.
Key:
ALDH1A1 [1] = molecular target: T1, ALDH1A1 (Homo sapiens, UniProt P00352); assay: Cell-based enzyme assay, retinoic acid production in ALDH1A1/H1299 cells
T1 sequence (P00352 1-501): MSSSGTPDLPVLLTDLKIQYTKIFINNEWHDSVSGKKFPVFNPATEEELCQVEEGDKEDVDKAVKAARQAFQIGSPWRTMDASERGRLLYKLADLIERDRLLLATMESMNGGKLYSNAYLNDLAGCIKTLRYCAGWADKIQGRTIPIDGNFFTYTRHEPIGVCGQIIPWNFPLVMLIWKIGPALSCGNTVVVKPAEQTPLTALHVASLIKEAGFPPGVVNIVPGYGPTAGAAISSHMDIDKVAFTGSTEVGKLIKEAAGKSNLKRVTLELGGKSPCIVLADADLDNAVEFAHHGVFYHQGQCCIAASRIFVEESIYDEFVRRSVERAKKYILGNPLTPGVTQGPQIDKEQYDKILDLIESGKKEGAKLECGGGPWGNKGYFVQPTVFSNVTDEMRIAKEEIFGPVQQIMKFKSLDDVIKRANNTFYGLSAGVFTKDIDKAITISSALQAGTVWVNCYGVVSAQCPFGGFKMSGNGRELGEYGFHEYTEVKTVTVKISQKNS
Protocol: (§1) ALDH1A1 cDNA clone was purchased transfection-ready, and ALDH1A2 full-length cDNA was subcloned into pcDNA3, a mammalian expression vector. ALDH1A1 and ALDH1A2 were transfected into H1299 cells (CRL5803, ATCC) using Lipofectamine 3000 (Invitrogen) following the manufacturer's instructions. Stably transfected cells were selected with G418 (1.2 mg/ml) and referred to as ALDH1A1/H1299 and ALDH1A2/H1299. For the cell-based enzyme assays,
(§2) H1299 cells were routinely grown in RPMI-1640 (ATCC) supplemented with 10% fetal bovine serum (Atlanta Biologicals) in a 37 C, 5% CO2, moisture-saturated atmosphere. H1299, ALDH1A1/H1299 and ALDH1A2/H1299 cells were seeded into 12-well plates (1×10^5 cells/well) and grown for 2 days to confluence. Confluent cells were treated for 20 hours in the above media excluding serum with 2 μM all-trans-retinal, and varying concentrations of inhibitors. Serum-free media was used for the treatment period to avoid retinoic acid in serum. Retinoic acid concentrations were determined from cells and media, and specificity of inhibitors was determined by comparing retinoic acid levels in the presence and absence of the inhibitors in ALDH1A1- vs. ALDH1A2-expressing cells.

ALDH1A2 [2] = molecular target: T2, ALDH1A2 (Homo sapiens, UniProt O94788); assay: Cell-based enzyme assay, retinoic acid production in ALDH1A2/H1299 cells
T2 sequence (O94788 1-518): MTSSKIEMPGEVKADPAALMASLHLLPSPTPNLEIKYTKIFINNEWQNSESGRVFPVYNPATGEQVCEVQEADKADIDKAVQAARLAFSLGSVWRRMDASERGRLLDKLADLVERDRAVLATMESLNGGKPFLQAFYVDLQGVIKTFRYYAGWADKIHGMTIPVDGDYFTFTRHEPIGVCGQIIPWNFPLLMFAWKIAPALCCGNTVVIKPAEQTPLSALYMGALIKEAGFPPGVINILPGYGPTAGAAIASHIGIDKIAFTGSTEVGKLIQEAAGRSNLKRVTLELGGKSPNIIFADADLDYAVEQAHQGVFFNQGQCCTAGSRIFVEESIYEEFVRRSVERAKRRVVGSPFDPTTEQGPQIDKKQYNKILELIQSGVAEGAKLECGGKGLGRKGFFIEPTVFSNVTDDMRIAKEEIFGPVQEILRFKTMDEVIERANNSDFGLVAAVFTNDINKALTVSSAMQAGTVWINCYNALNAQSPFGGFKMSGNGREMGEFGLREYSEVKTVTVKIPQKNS
Protocol: as §1, §2

ALDH1A2 [3] = molecular target: T2, ALDH1A2; assay: Inhibitor screening using purified enzymes: ALDH1A2 activity, retinoic acid production by HPLC (5 uM initial screen, then IC50); format: biochemical; design: histidine-tag (C); made in house; host or cells: bacterial expression (pET28 vector, IPTG induction); details: purified enzyme
Excerpt: (§3) ALDHs were cloned into bacterial expression vector for in vitro enzyme assays and into mammalian expression vectors for cell-based enzyme assays. Human ALDH1A1 cDNA and human ALDH2 cDNA were purchased from OriGene (SC321535) and Open Biosystems (MHS4771-99611182), respectively. and human ALDH1A2 cDNA was cloned from human testis RNA using RT-PCR (Population Division of the Department of Economic and Social Affairs of the United Nations Secretariat. World Population prospects: the 2008 revision. Available at http://www.un.org/esa/population/ (Retrieved Sep. 30, 2011)). For bacterial expression, an open reading frame of ALDH1A1 and ALDH2 were subcloned into the pETite vector (Lucigen) with a 5′ histidine-tag and that of ALDH1A2 into a pET28 vector (Novagen) with a 3′ histidine-tag. Correct frame and sequences were verified through DNA sequencing (UW DNA sequencing facility). ALDHs were induced with 1 mM IPTG and purified using His.Bind resin (Novagen, San Diego, Calif.) and stored in a buffer containing 20 mM Hepes (pH 8), 150 mM KCl and 1 mM EDTA as previously described (Fierce, Y., de Morais Vieira, M., Piantedosi, R., Wyss, A., Blaner, W. S., and Paik, J. (2008) In vitro and in vivo characterization of retinoid synthesis from beta-carotene. Archives of biochemistry and biophysics 472, 126-138).
(§4) ALDH1A1 and ALDH1A2 activity was determined as previously reported (Beedle M T, Stevison F, Zhong G, Topping T, Hogarth C, Isoherranen N, Griswold M D. Sources of All-Trans Retinal Oxidation Independent of the Aldehyde Dehydrogenase 1A Isozymes Exist in the Postnatal Testis. Biol Reprod. 2018 Sep. 21. doi: 10.1093/biolre/ioy200). Briefly, purified enzymes were incubated in a buffer containing 10 mM HEPES buffer (pH 8.0), 150 mM potassium chloride and 2 mM EDTA with 2 mM NAD. Retinoic acid production was determined using HPLC as previously reported (Amory J K, Muller C H, Shimshoni A J, Isoherranen N, Paik J, Moreb J S, Amory D W, Evanoff R, Goldstein A S, Griswold M D. Suppression of spermatogenesis by bisdichloroacetyldiamines is mediated by inhibition of testicular retinoic acid biosynthesis. Journal of Andrology 2011; 32(1):111-119). Inhibitors were diluted in DMSO and added to the reactions. […] For initial screening of inhibitors for ALDH1A2, 1 μg ALDH1A2, 5 μM all-trans-retinal and 5 μM inhibitors were incubated for 15 min at 37° C. […] For this purpose, 0.5 μg ALDH1A2 and […] were incubated for 5 minutes at 37° C. with varying concentrations of inhibitors. To determine specificity toward ALDH1A2, the IC50 for […]

ALDH1A1 [4] = molecular target: T1, ALDH1A1; assay: Inhibitor screening using purified enzymes: ALDH1A1 activity, retinoic acid production by HPLC; format: biochemical; details: purified enzyme
Excerpt: as §3, §4

ALDH2 = molecular target: T3, ALDH2 (Homo sapiens, UniProt P05091); assay: Purified ALDH2 assay with propanal, NADH fluorescence; format: biochemical; details: purified enzyme
T3 construct: histidine-tag (N); made in house; host or cells: bacterial expression (pETite vector, IPTG induction)
T3 sequence (P05091 18-517): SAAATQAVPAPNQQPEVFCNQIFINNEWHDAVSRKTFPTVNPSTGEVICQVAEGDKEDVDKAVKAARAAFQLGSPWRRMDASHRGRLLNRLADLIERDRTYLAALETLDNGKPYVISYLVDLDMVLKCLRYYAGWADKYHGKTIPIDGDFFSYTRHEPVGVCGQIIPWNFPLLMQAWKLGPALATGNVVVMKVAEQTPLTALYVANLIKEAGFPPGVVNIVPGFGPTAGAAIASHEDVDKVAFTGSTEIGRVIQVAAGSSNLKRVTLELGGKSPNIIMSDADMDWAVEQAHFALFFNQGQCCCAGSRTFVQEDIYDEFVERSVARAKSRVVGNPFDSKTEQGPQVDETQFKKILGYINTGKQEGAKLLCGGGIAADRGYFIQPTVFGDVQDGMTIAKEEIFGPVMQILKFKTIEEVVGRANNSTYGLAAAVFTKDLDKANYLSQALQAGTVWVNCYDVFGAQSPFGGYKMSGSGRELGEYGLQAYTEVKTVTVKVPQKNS
Excerpt: as §3, with “126-138). […]” for “126-138).”
For this, 2 μg purified ALDH2, 20 μM propanal and varying concentrations of inhibitors were incubated at room temperature. Enzyme activity was determined by measuring fluorescence of NADH (Ex, 350 nm/Em, 460 nm) using a Victor3 plate reader (PerkinElmer), and initial velocity was calculated from two consecutive readings over 1 minute.

| Compound | EC50 (ALDH1A1 [1]) | EC50 (ALDH1A2 [2]) | IC50 (ALDH1A2 [3]) | IC50 (ALDH1A1 [4]) | EC50 (ALDH1A1 [1]; cell-based) | EC50 (ALDH1A2 [2]; cell-based) | IC50 (ALDH2) |
| --- | --- | --- | --- | --- | --- | --- | --- |
| Cn1cccc1C(=O)N1CCN(c2ccc(NC(=O)C(Cl)Cl)c(N3CCCCCC3)c2)CC1 [Compound 381, {4-[4-Dichloroacetamido-3-(azepan-1-yl)phenyl]piperazin-1-yl}(1-methyl-1H-pyrrol-2-yl)methanone] | 0.059 µM | > 5 µM | 18.5 µM |  |  |  |  |
| 1-[4-(4-Nitrophenyl)-3-(azocan-1-yl)]piperazin-1-yl](1-methyl-1H-pyrrol-2-yl)methanone [Compound N104] |  |  | 6.5 µM | 0.141 µM |  |  |  |
| CCOC(=O)c1cn(-c2ccccc2)nc1-c1ccc(S(C)(=O)=O)cc1 [Compound 232, Ethyl 3-[4-(methylsulfonyl)phenyl]-1-phenyl-1H-pyrazole-4-carboxylate] |  |  |  |  | 0.723 µM | 0.317 µM | > 5 µM |
| O=C(Nc1cccc(F)c1)c1cn(-c2ccccc2)nc1-c1ccc(CBr)cc1 [Compound 8-44, 3-[4-(Bromomethyl)phenyl]-N-(3-fluorophenyl)-1-phenyl-1H-pyrazole-4-carboxamide] |  |  | 0.72 µM | 3.9 µM |  |  |  |
| CS(=O)(=O)c1ccc(-c2nn(-c3ccc(F)cc3)cc2C(=O)Nc2cccc(C(F)(F)F)c2)cc1 [Compound 256, N-(3-Trifluoromethylphenyl)-1-(4-fluorophenyl)-3-[4-(methylsulfonyl)phenyl]-1H-pyrazole-4-carboxamide] |  |  | 0.112 µM |  | 46 µM | 0.011 µM |  |
| Methyl 4-{4-[(2-hydroxyphenyl)carbamoyl]-[4-(methylsulfonyl)phenyl]-1H-pyrazol-1-yl} benzoate [Compound 274] |  |  | 0.131 µM |  | 2.23 µM | 0.008 µM |  |
| COC(=O)c1ccc(-n2cc(C(=O)Nc3cccc(F)c3)c(-c3ccc(S(C)(=O)=O)cc3)n2)cc1 [Compound 273, Methyl 4-{4-[(3-fluorophenyl)carbamoyl]-3-[4-(methylsulfonyl)phenyl]-1H-pyrazol-1-yl} benzoate] |  |  | 0.179 µM |  | 5.63 µM | 0.045 µM |  |
| 1-(4-Hydroxymethylphenyl)-3-[4-(methylsulfonyl)phenyl]-N-(3-fluorophenyl)-1H-pyrazole-4-carboxamide [Compound 282] |  |  |  |  | > 20 µM | 0.24 µM |  |
| CS(=O)(=O)c1ccc(-c2nn(-c3ccc(C=O)cc3)cc2C(=O)Nc2cccc(F)c2)cc1 [Compound 280, 1-(4-Formylphenyl)-3-[4-(methylsulfonyl)phenyl]-N-(3-fluorophenyl)-1H-pyrazole-4-carboxamide] |  |  | > 5 µM |  | > 20 µM | 0.3 µM |  |
| CN(C)C(=O)c1ccc(-n2cc(C(=O)Nc3cccc(F)c3)c(-c3ccc(S(C)(=O)=O)cc3)n2)cc1 [Compound 286, 1-(4-Dimethylcarbomylphenyl)-3-[4-(methylsulfonyl)phenyl]-N-(3-fluorophenyl)-1H-pyrazole-4-carboxamide] |  |  |  |  | > 20 µM | 0.11 µM |  |
| O=C(O)c1ccc(-n2cc(C(=O)Nc3cccc(F)c3)c(-c3ccc(O)cc3)n2)cc1 [Compound 306, 4-{4-[(3-Fluorophenyl)carbamoyl]-3-(4-hydroxyphenyl)-1H-pyrazol-1-yl}benzoic acid] |  |  |  |  | 9.62 µM | 0.15 µM |  |
| CC(=O)Oc1ccc(-c2nn(-c3ccccc3)cc2C=O)cc1 [Cmpd 35] |  |  |  |  | 3.38 µM | 0.952 µM |  |

— patent US11548875B2, “Inhibitor compounds for male contraception” (University of Washington, priority 2018, dated 2023)
